Assay results as given in patent US20080045594A1, “Use of at Least One Conjugated Triene-Containing Fatty Acid for Preparing a Medicine for Treating Inflammation” (LABORATOIRES EXPANSCIENCE, priority 2004, published 2008).

System: Normal human adipocytes
Experiment: lipid synthesis in suspended adipocytes (incorporation of radio-labelled acetate)
Assay type: cell-based
Conditions: 10 μM; reference molecule, inhibitor of FAS
Protocol: Normal human adipocytes were isolated from abdominal biopsies (plastic surgery). Immediately after receipt, the samples were incubated for 30 min at 37° C. in the presence of collagenase (Sigma). The suspension of adipocytes is then rinsed and diluted 3 times in the culture medium.
Culture medium: bicarbonate (Life Technologies) 1.87 mg/ml, penicillin/streptomycin (Life Technologies) 25 IU/ml/25 μg/ml, glutamine (Life Technologies) 2 mM, MEM (Merck Eurolab) 100% v/v, albumin of bovine origin (Sigma) 0.5% w/v.
The suspended adipocytes are incubated for 1 h at 37° C. in the presence of different concentrations of MA105 (20 and 2 ppm) diluted in THF (tetrahydrofurane). A […] volume of radio-labelled acetate (2-C^14, 60.87 μCi/ml, Amersham) is then added to the preparation. After 4 hrs of incubation, the lipids are extracted according to the procedure described by Bligh and Dyer (methanol/chloroform/water), evaporated under nitrogen and the incorporated radioactivity was quantitated by liquid scintillation (LKB 1210 Rackbeta).

C/C=C/C/C=C/CCC(=O)[C@H]1O[C@H]1C(N)=O [ceruline]
inhibition of the incorporation of acetate: 75 % inhibition/control
